Measured values taken from patent publication EP1140830B1, “ARYLPIPERIDINE AND ARYL-1,2,5,6-TETRAHYDROPYRIDINE AMIDE DERIVATIVES HAVING 5HT1A RECEPTOR ACTIVITY” (Wyeth, priority 1998, dated 2000).
Read-outs that look alike come from different tables or passages of the source.

What was measured:
[1] = target: T1, human 5HT1A receptor (Homo sapiens, UniProt P08908); assay: 5-HT1A Receptor Intrinsic Activity Assay (forskolin-stimulated cAMP in transfected CHO cells, RIA); format: cell-based; conditions: for Emax: Emax = 0 % means no agonist activity; for IC50: antagonist mode: reversal of agonist-induced activity, antagonist preincubated 20 minutes before agonist and forskolin
T1 construct: expressed in transfected cells; host or cells: CHO cells
T1 sequence (P08908 1-422): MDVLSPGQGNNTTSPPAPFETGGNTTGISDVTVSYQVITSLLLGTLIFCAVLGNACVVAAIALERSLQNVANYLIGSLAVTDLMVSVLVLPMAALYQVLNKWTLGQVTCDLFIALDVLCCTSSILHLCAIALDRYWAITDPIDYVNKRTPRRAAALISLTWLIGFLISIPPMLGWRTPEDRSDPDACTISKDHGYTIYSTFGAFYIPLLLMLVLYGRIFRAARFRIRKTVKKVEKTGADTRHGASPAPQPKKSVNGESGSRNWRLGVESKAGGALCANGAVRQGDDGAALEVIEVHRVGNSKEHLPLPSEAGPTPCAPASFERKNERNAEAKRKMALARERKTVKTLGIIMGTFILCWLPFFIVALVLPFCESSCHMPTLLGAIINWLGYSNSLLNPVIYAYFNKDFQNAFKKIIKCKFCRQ
Protocol: 5-HT1A Receptor Intrinsic Activity Assay
The intrinsic activity of compounds of the present invention was established by testing the claimed compounds ability to reverse the stimulation of cyclic adenosinemonophosphate (cAMP) in CHO cells stably transfected with the human 5-HT1A receptor.
Stably transfected CHO cells were grown in DMEM containing 10% heat inactivated FBS and non-essential amino acids. The cells arc plated at a density of ? x10^6 cells per well in a 24 well plate and incubated for 2 days in a CO2 incubator. On the second day, the media is replaced with 0.5 mL treatment buffer (DMEM + 25 mM HEPES, 5 mM theophylline, 10 µM pargyline) and incubated for 10 minutes at 37°C. Wells are treated with forskolin (1 µM final concentration) followed immediately by the test compound (0.1 and 1 µM for initial screen) and incubated for an additional 10 minutes at 37°C. The reaction is terminated by removal of the media and addition of 0.5 mL ice cold assay buffer (supplied in the RIA kit). Plates are stored at -20°C prior to assessment of cAMP formation by RIA. EC50 values are determined for the active test compounds. Compounds shown to have no agonist activities (Emax = 0 %) are further analyzed for their ability to reverse agonist-induced activity. In separate experiments, 6 concentrations of antagonist are preincubated for 20 minutes prior to the addition of agonist and forskolin. Cells are harvested as described above. The CAMP kit is supplied by Amersham and the RIA is performed as per kit instructions, and calculations of IC50 performed by GraphPad Prism.

[2] = target: T1, human 5HT1A receptor; assay: 5-HT1A Receptor Binding Assay ([3H] 8-OH-DPAT displacement in transfected CHO cells)
Protocol: 5-HT1A Receptor Binding Assay
Stably transfected CHO cells are grown in DMEM containing 10% heat inactivated FBS and non-essential amino acids. Cells are scraped off the plate, transferred to centrifuge tubes, and washed twice by centrifugation (2000 rpm for 10 min., 4"C) in buffer (50 mM Tris pH 7.5). The resulting pellets are aliquoted and placed at -80°C. On the day of assay, the cells are thawed on ice and resuspended in buffer. The binding assay is performed in a 96 well microtiter plate in a total volume of 250 µL. […] Following a 30 minute incubation at room temperature, the reaction is terminated by the addition of ice cold buffer and rapid filtration through a GF/B filter presoaked for 30 minutes in 0.5% PEI.

[3] = agonist mode: reversal of forskolin (1 µM) stimulated cAMP, CHO cells
[4] = displacement of [3H] 8-OH-DPAT (1.5 nM), CHO cells stably transfected with human 5HT1A receptor

Structure (SMILES): COc1ccc(F)cc1C1=CCN(C[C@@H](Cc2ccccc2)N(C)C(=O)C2(C)CCCCC2)CC1 [Example 2, 1-Methyl-cyclohexanecarboxylic acid {(1R)-1-benzyl-2-[4-(5-fluoro-2-methoxy-phenyl)-1,2,5,6-tetrahydro-4H-pyridin-1-yl]-ethyl}-methyl-amide]
- Emax [1, 3]: 0%
- Ki [2]: 4.9 nM

Structure (SMILES): COc1ccccc1C1=CCN(C[C@@H](Cc2ccccc2)NC(=O)C2CCCCC2)CC1 [Example 3, (R)-Cyclohexanecarboxylic acid{1-benzyl-2-[4-(2-methoxy-phenyl)-3,6-dihydro-2H-pyridin-1-yl]-ethyl}-amide]
- Emax [1, 3]: 84%

Structure (SMILES): COc1ccccc1C1=CCN(C[C@@H](Cc2ccccc2)NC(=O)C2(C)CCCCC2)CC1 [Example 4, (R)-1-Methyl-cyclohexanecarboxylic acid{1-benzyl-2-[4-(2-methoxy-phenyl)-3,6-dihydro-2H-pyridin-1-yl]-ethyl}-amide]
- Emax [1, 3]: 84%

Structure (SMILES): COc1ccccc1C1CCN(C[C@@H](Cc2ccccc2)NC(=O)C2(C)CCCCC2)CC1 [Example 5, (R)-1-Methyl-cyclohexanecarboxylic acid {1-benzyl-2-[4-(2-methoxy-phenyl)-piperidin-1-yl]-ethyl}-amide]
- Emax [1, 3]: 0%
- IC50 [1]: 0.29 nM
- Ki [2, 4]: 0.24 nM

Structure (SMILES): COc1ccc(F)cc1C1CCN(C[C@@H](Cc2ccccc2)N(C)C(=O)C2(C)CCCCC2)CC1 [Example 1, 1-Methyl-cyclohexanecarboxylic acid {(1R)-1-benzyl-2-[4-(5-fluoro-2-methoxy-phenyl)-piperidine-1-yl]-ethyl}-methyl-amide]
- Emax [1, 3]: 0%
- IC50 [1]: 11.1 nM
- Ki [2, 4]: 10.7 nM

Structure (SMILES): COc1ccccc1C1CCN(C[C@@H](Cc2ccccc2)NC(=O)C2CCCCC2)CC1 [Example 6, (R)-Cyclohexanecarboxylic acid {1-benzyl-2-[4-(2-methoxy-phenyl)-piperidin-1-yl]-ethyl}-amide]
- EC50 [1, 3]: 16.9 nM
- Emax [1, 3]: 92%
- Ki [2, 4]: 0.23 nM
